These results are taken from US20240335570A1, “FOLATE RECEPTOR-TARGETED CONJUGATES WITH BRUSH BORDER MEMBRANE ENZYME-CLEAVABLE LINKERS AND METHODS OF USE IN IMAGING AND TREATING CANCER” (PURDUE RESEARCH FOUNDATION, priority 2021, published 2024).

No end group written: not given here.

This assay concerns KB cells. The experiment in a line: Folate conjugate binding curves in KB cells by flow cytometry. The following applies: KB cells incubated 1 hour at 4° C. with increasing concentrations of conjugate, concentrations normalized via fluorescence, read-out: Kd (folate conjugate binding curve). On the procedure:
KB cells were incubated for 1 hour at 4° C. with increasing concentrations of OTL38, BBM1, BBM2, or BBM3 in staining buffer, washed three times with staining buffer, and then analyzed via flow cytometry.
KB cells were incubated for 1 hour at 4° C. with increasing concentrations of OTL38, BBM1, BBM2 or BBM3 in staining buffer, washed three times with staining buffer, suspended in phosphate-buffered saline, and then analyzed via flow cytometry. Concentrations of all conjugates were normalized via fluorescence.
A general note: In flow cytometry, cells or beads pass a laser one at a time.
As to `CCCCCN1c2ccc(C)cc2C(C)(C)C1CCc1cccc(CCC2N(CCCCC)c3ccc(C)cc3C2(C)C)c1Oc1ccc(CCNC(=O)CCN2C(=O)CC(SCC(NC(=O)C(CCCCN)NC(=O)[C@@H](NC(=O)C(CCCC)NC(=O)CCC(NC(=O)c3ccc(NCc4cnc5nc(N)nc(O)c5n4)cc3)C(=O)O)C(C)C)C(=O)O)C2=O)cc1` (stereo partly drawn) [BBM1], the Kd turned out to be 12.3 nM.
With “BBM2: Folate dye conjugate; a peptide with the sequence M-V-K-G-Y-G-K-C (MVKGYGKC; also: folate dye conjugate (site not given here))”, the Kd is 29.6 nM.
For OTL38 [reference compound] the value was 6.7 nM.

One may read the Kd as the equilibrium constant for the complex coming apart.
